In patent publication US10308667B2, “Oxadiazolopyridine derivatives for use as ghrelin O-acyl transferase (GOAT) inhibitors” (Boehringer Ingelheim International GmbH, priority 2016, dated 2019) one finds IC50 data, which are given here for 34 compounds.

human GOAT, sequence (Q96T53 whole entry): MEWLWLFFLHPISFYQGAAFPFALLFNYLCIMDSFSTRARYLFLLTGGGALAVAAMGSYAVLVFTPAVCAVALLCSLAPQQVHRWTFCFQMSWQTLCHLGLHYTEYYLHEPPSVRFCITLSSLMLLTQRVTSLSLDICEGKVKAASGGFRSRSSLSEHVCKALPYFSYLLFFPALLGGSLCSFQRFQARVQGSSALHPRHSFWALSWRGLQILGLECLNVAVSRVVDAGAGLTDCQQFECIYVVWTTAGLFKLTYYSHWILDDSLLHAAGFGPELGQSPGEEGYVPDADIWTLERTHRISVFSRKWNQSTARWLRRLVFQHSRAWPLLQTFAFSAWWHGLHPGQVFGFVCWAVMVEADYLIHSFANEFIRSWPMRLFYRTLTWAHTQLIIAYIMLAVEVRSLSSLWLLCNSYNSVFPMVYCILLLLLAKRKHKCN

The experiment has as its target human GOAT (Homo sapiens (Human), UniProt Q96T53). Briefly: Determination of hGOAT Activity in HEK293 Cells after Incubation with Test Compound. In kind it is cell-based. The conditions noted are these: HEK293 cells stably transfected with preproghrelin and human GOAT; octanoate-BSA 100 μM; acyl-ghrelin in medium by ELISA after 5 hours. Put shortly: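 HEK293 cells stably expressing preproghrelin and human GOAT were given serum-free medium with 100 μM octanoate-BSA plus compound (0.3% DMSO) for 5 h. Acyl-ghrelin in the medium was quantified by ELISA (A405, standard curve) as % of vehicle. IC50 was fitted from 8 concentrations.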
A general note: ELISA stands for enzyme-linked immunosorbent assay.
In the case of `Cc1nc2nonc2c(N)c1Cc1ccc(C#N)c(OC2COC2)n1` [Example 104, 6-(7-Amino-5-methyl-[1,2,5]oxadiazolo[3,4-b]pyridin-6-ylmethyl)-2-(oxetan-3-yloxy)-nicotinonitrile], 0.98 nM corresponded to half-maximal inhibition (IC50).
Consider `Cc1nc2nonc2c(N)c1Cc1ccc(C#N)c(OCC(C)(C)O)n1` [Example 105, 6-(7-Amino-5-methyl-[1,2,5]oxadiazolo[3,4-b]pyridin-6-ylmethyl)-2-(2-hydroxy-2-methyl-propoxy)-nicotinonitrile], for which the IC50 (commonly the concentration that inhibits the measured activity by half) came out at 0.12 nM. This IC50 lies about 8.2-fold lower than the previous one.
With `Cc1nc2nonc2c(N)c1Cc1ccc(C#N)c(OCCF)n1` [Example 106, 6-(7-Amino-5-methyl-[1,2,5]oxadiazolo[3,4-b]pyridin-6-ylmethyl)-2-(2-fluoro-ethoxy)-nicotinonitrile], the IC50 was 0.11 nM.
In the case of `Cc1nc2nonc2c(N)c1Cc1ccc(C#N)c(OCC(F)(F)F)n1` [Example 107, 6-(7-Amino-5-methyl-[1,2,5]oxadiazolo[3,4-b]pyridin-6-ylmethyl)-2-(2,2,2-trifluoro-ethoxy)-nicotinonitrile] it was 0.33 nM; in that of `Cc1nc2nonc2c(N)c1Cc1ccc(C#N)c(OCCCF)n1` [Example 108, 6-(7-Amino-5-methyl-[1,2,5]oxadiazolo[3,4-b]pyridin-6-ylmethyl)-2-(3-fluoro-propoxy)-nicotinonitrile], 0.026 nM.
With `Cc1nc2nonc2c(N)c1Cc1ccc(C#N)c(OCC(F)F)n1` [Example 109, 6-(7-Amino-5-methyl-[1,2,5]oxadiazolo[3,4-b]pyridin-6-ylmethyl)-2-(2,2-difluoro-ethoxy)-nicotinonitrile] the figure was 0.093 nM; with `Cc1nc2nonc2c(N)c1Cc1ccc(C#N)c(OCCC(F)(F)F)n1` [Example 110, 6-(7-Amino-5-methyl-[1,2,5]oxadiazolo[3,4-b]pyridin-6-ylmethyl)-2-(3,3,3-trifluoro-propoxy)-nicotinonitrile], 0.28 nM; with `Cc1nc2nonc2c(N)c1Cc1ccc(C#N)c(OCC2(C)COC2)n1` [Example 111, 6-(7-Amino-5-methyl-[1,2,5]oxadiazolo[3,4-b]pyridin-6-ylmethyl)-2-(3-methyl-oxetan-3-ylmethoxy)-nicotinonitrile], 0.1 nM.
The compound `Cc1nc2nonc2c(N)c1Cc1ccc(C#N)c(OCC2CC2(F)F)n1` (stereo not shown) [Example 112, 6-(7-Amino-5-methyl-[1,2,5]oxadiazolo[3,4-b]pyridin-6-ylmethyl)-2-(2,2-difluoro-cyclopropylmethoxy)-nicotinonitrile] came in with an IC50 of 0.22 nM.
With `Cc1nc2nonc2c(N)c1Cc1ccc(C#N)c(=O)[nH]1` [Example 113, 6-(7-Amino-5-methyl-[1,2,5]oxadiazolo[3,4-b]pyridin-6-ylmethyl)-2-oxo-1,2-dihydro-pyridine-3-carbonitrile] the figure was 31 nM; with `Cc1nc2nonc2c(N)c1Cc1ccc(OCC(F)(F)F)c(C#N)n1` [Example 114, 6-(7-Amino-5-methyl-[1,2,5]oxadiazolo[3,4-b]pyridin-6-ylmethyl)-3-(2,2,2-trifluoro-ethoxy)-pyridine-2-carbonitrile], 3.9 nM; with `Cc1nc2nonc2c(N)c1Cc1ccc(OCCF)c(C#N)n1` [Example 115, 6-(7-Amino-5-methyl-[1,2,5]oxadiazolo[3,4-b]pyridin-6-ylmethyl)-3-(2-fluoro-ethoxy)-pyridine-2-carbonitrile], 1.2 nM.
`Cc1nc2nonc2c(N)c1Cc1ccc(OCC(F)F)c(C#N)n1` [Example 116, 6-(7-Amino-5-methyl-[1,2,5]oxadiazolo[3,4-b]pyridin-6-ylmethyl)-3-(2,2-difluoro-ethoxy)-pyridine-2-carbonitrile] registered an IC50 of 0.83 nM.
As to `Cc1nc2nonc2c(N)c1Cc1ccc(Oc2ccnn2C)c(C#N)n1` [Example 117, 6-(7-Amino-5-methyl-[1,2,5]oxadiazolo[3,4-b]pyridin-6-ylmethyl)-3-(2-methyl-2H-pyrazol-3-yloxy)-pyridine-2-carbonitrile], the IC50 was 0.19 nM.
In turn, `Cc1nc2nonc2c(N)c1Cc1ccc(Oc2ccccc2)c(C#N)n1` [Example 118, 6-(7-Amino-5-methyl-[1,2,5]oxadiazolo[3,4-b]pyridin-6-ylmethyl)-3-phenoxy-pyridine-2-carbonitrile] yielded an IC50 of 0.085 nM.
In turn, `Cc1nc2nonc2c(N)c1Cc1ccc(OC(F)F)c(N)n1` [Example 119, 6-(6-Amino-5-difluoromethoxy-pyridin-2-ylmethyl)-5-methyl-[1,2,5]oxadiazolo[3,4-b]pyridin-7-ylamine] came in with an IC50 of 0.091 nM.
Compound `Cc1nc2nonc2c(N)c1Cc1ccc(OC(F)F)c(=O)[nH]1` [Example 120, 6-(7-Amino-5-methyl-[1,2,5]oxadiazolo[3,4-b]pyridin-6-ylmethyl)-3-difluoromethoxy-1H-pyridin-2-one] registered an IC50 of 4.3 nM.
For `Cc1nc2nonc2c(N)c1Cc1ccc(Br)c(NCC2(C)COC2)n1` [Example 121, 6-{5-Bromo-6-[(3-methyl-oxetan-3-ylmethyl)-amino]-pyridin-2-ylmethyl}-5-methyl-[1,2,5]oxadiazolo[3,4-b]pyridin-7-ylamine], the IC50 was determined as 0.045 nM.
In the case of `Cc1nc2nonc2c(N)c1Cc1ccc(Br)c(N2CC(C)(O)C2)n1` [Example 122, 1-[6-(7-Amino-5-methyl-[1,2,5]oxadiazolo[3,4-b]pyridin-6-ylmethyl)-3-bromo-pyridin-2-yl]-3-methyl-azetidin-3-ol], the IC50 stood at 0.033 nM. The IC50 values of the last two compounds are within 1.5-fold of each other.
Compound `Cc1nc2nonc2c(N)c1Cc1ccc(Br)c(N2CCOCC2)n1` [Example 123, 6-(5-Bromo-6-morpholin-4-yl-pyridin-2-ylmethyl)-5-methyl-[1,2,5]oxadiazolo[3,4-b]pyridin-7-ylamine] displayed an IC50 of 0.026 nM.
In the case of `Cc1nc2nonc2c(N)c1Cc1ccc(Br)c(NCC(C)(C)C(N)=O)n1` [Example 124, 3-[6-(7-Amino-5-methyl-[1,2,5]oxadiazolo[3,4-b]pyridin-6-ylmethyl)-3-bromo-pyridin-2-ylamino]-2,2-di methyl-propionamide], the IC50 came to 0.056 nM. Against the preceding compound, the IC50 is about 2.2-fold higher.
In turn, `Cc1nc2nonc2c(N)c1Cc1ccc(Br)c(NC2CC2)n1` [Example 125, 6-(5-Bromo-6-cyclopropylamino-pyridin-2-ylmethyl)-5-methyl-[1,2,5]oxadiazolo[3,4-b]pyridin-7-ylamine] displayed an IC50 of 0.038 nM.
Take `Cc1nc2nonc2c(N)c1Cc1ccc(Br)c(NCC2(C)CCOC2)n1` (stereo not shown) [Example 126, 6-{5-Bromo-6-[(3-methyl-tetrahydro-furan-3-ylmethyl)-amino]-pyridin-2-ylmethyl}-5-methyl-[1,2,5]oxadiazolo[3,4-b]pyridin-7-ylamine]: inhibition was half-maximal at 0.17 nM (IC50).
In the case of `Cc1nc2nonc2c(N)c1Cc1ccc(Br)c(NCC(C)(C)C#N)n1` [Example 127, 3-[6-(7-Amino-5-methyl-[1,2,5]oxadiazolo[3,4-b]pyridin-6-ylmethyl)-3-bromo-pyridin-2-ylamino]-2,2-di methyl-propionitrile] it was 0.1 nM; in that of `Cc1nc2nonc2c(N)c1Cc1ccc(Br)c(NC2CC(F)(F)C2)n1` [Example 128, 6-[5-Bromo-6-(3,3-difluoro-cyclobutylamino)-pyridin-2-ylmethyl]-5-methyl-[1,2,5]oxadiazolo[3,4-b]pyridin-7-ylamine], 0.096 nM.
Compound `Cc1nc2nonc2c(N)c1Cc1ccc(C#N)c(NCC2(C)COC2)n1` [Example 135, 6-(7-Amino-5-methyl-[1,2,5]oxadiazolo[3,4-b]pyridin-6-ylmethyl)-2-[(3-methyl-oxetan-3-ylmethyl)-amino]-nicotinonitrile] displayed an IC50 of 0.2 nM.
`Cc1nc2nonc2c(N)c1Cc1ccc(C#N)c(N2CCOCC2)n1` [Example 136, 6-(7-Amino-5-methyl-[1,2,5]oxadiazolo[3,4-b]pyridin-6-ylmethyl)-2-morpholin-4-yl-nicotinonitrile] displayed an IC50 of 0.033 nM.
Compound `Cc1nc2nonc2c(N)c1Cc1ccc(C#N)c(N2CC3(COC3)C2)n1` [Example 137, 6-(7-Amino-5-methyl-[1,2,5]oxadiazolo[3,4-b]pyridin-6-ylmethyl)-2-(2-oxa-6-aza-spiro[3.3]hept-6-yl)-nicotinonitrile] had an IC50 of 0.054 nM.
The compound `Cc1nc2nonc2c(N)c1Cc1ccc(C#N)c(N2CC(C)(O)C2)n1` [Example 138, 6-(7-Amino-5-methyl-[1,2,5]oxadiazolo[3,4-b]pyridin-6-ylmethyl)-2-(3-hydroxy-3-methyl-azetidin-1-yl)-nicotinonitrile] yielded an IC50 of 0.075 nM.
`Cc1nc2nonc2c(N)c1Cc1ccc(C#N)c(NC2CC2)n1` [Example 139, 6-(7-Amino-5-methyl-[1,2,5]oxadiazolo[3,4-b]pyridin-6-ylmethyl)-2-cyclopropylamino-nicotinonitrile]: the IC50 worked out at 0.02 nM.
In turn, `Cc1nc2nonc2c(N)c1Cc1ccc(C#N)c(NC2CC(F)(F)C2)n1` [Example 140, 6-(7-Amino-5-methyl-[1,2,5]oxadiazolo[3,4-b]pyridin-6-ylmethyl)-2-(3,3-difluoro-cyclobutylamino)-nicotinonitrile] returned an IC50 of 0.15 nM.
Take `Cc1nc2nonc2c(N)c1Cc1ccc(C#N)c(N2CCNC(=O)CC2)n1` [Example 141, 6-(7-Amino-5-methyl-[1,2,5]oxadiazolo[3,4-b]pyridin-6-ylmethyl)-2-(5-oxo-[1,4]diazepan-1-yl)-nicotinonitrile]: half-maximal inhibition (IC50) was put at 0.14 nM.
With `Cc1nc2nonc2c(N)c1Cc1ccc(C#N)c(N2CC(F)(F)C2)n1` [Example 142, 6-(7-Amino-5-methyl-[1,2,5]oxadiazolo[3,4-b]pyridin-6-ylmethyl)-2-(3,3-difluoro-azetidin-1-yl)-nicotinonitrile] the figure was 0.027 nM; with `Cc1nc2nonc2c(N)c1Cc1ccc(C#N)c(N2CCC(F)(F)C2)n1` [Example 143, 6-(7-Amino-5-methyl-[1,2,5]oxadiazolo[3,4-b]pyridin-6-ylmethyl)-2-(3,3-difluoro-pyrrolidin-1-yl)-nicotinonitrile], 0.046 nM.
